Non-standard residues stand in square brackets, D forms with d. Residues, ends and D or L forms follow the SMILES beside them. *: point of attachment. X1 = Fc1ccc(-c2csc(N3CCOCC3)n2)c(OCCOCCOCCN*)c1F; X2 = O=C(NCCCCCCN*)c1cccc2sc(N3CCOCC3)nc12; Dip = N[C@H](C(=O)O)C(c1ccccc1)c1ccccc1; Chg = N[C@H](C(=O)O)C1CCCCC1; NMeA = CN[C@@H](C)C(=O)O
Legend:
Type in all cases: physicochemical
[1] = Distribution coefficient, logD of compound in n-Octanol/PBS at pH 7.4 incubated for 30 mins under shaking condition by UHPLC-MS analysis
[2] = Distribution coefficient, logD of compound in n-Octanol/PBS at pH 7.4 incubated for 30 mins under shaking condition by UV-Vis spectroscopic analysis; details: for logD at 0.5 h: n-octanol/PBS, pH 7.4; for logD: octanol/water, pH 7.4, 0.5 h, BLD = below limit of detection
[3] = Kinetic solubility of the compound incubated for 60 mins under shaking condition by UHPLC-MS analysis; details: 1 h
[4] = Kinetic solubility of the compound incubated for 60 mins under shaking condition by UV-Vis spectroscopic analysis; details: 1 h

Compound | logD at 0.5 h [1] | logD at 0.5 h [2] | log(Kinetic_solubility) ([3]; BLD = below limit of detection) | log(Kinetic_solubility) ([4]; BLD = below limit of detection) | logD [2] | log(Kinetic_solubility) [3] | log(Kinetic_solubility) [4]
COc1cc(C(=O)NCCCCCCNC(=O)COc2c(-c3csc(N4CCOCC4)n3)ccc(F)c2F)ccc1NC(=O)[C@@H]1N[C@@H](CC(C)(C)C)[C@](C#N)(c2ccc(Cl)cc2F)[C@H]1c1cccc(Cl)c1F | 4 | 3.7 | Bld | Bld | – | – | –
COc1ccc2c(c1)c(CC(=O)NCCCCC(=O)N[C@H](C(=O)N1C[C@H](O)C[C@H]1C(=O)N[C@@H](C)c1ccc(-c3scnc3C)cc1)C(C)(C)C)c(C)n2C(=O)c1ccc(Cl)cc1 | 5.47 | – | – | Bld | Bld | -6.1 | –
Cn1c(=O)n(C)c2cc(CNCCOCCNCC3CCN(c4ccc(C(=O)N[C@H]5CC[C@H](Oc6ccc(C#N)c(Cl)c6)CC5)nn4)CC3)ccc21 | 3.7 | 3.25 | – | – | – | -3.64 | -3.69
O=C1CCC(N2C(=O)c3cccc(NCCOCCOCCOCCn4cc(COc5ccc(N(C(=O)CCl)C(C(=O)NCCc6ccccc6)c6cccs6)cc5Cl)nn4)c3C2=O)C(=O)N1 (stereo not given) | 4.27 | 3.92 | – | Bld | – | -6.77 | –
N#Cc1ccc(O[C@H]2CC[C@H](NC(=O)c3ccc(N4CCC(CN5CCN(c6cc7c(cc6F)C(=O)N(C6CCC(=O)NC6=O)C7=O)CC5)CC4)nn3)CC2)cc1Cl (stereo not given in full) [BAVDEGALUTAMIDE] | 5.38 | – | Bld | Bld | Bld | – | –
COc1ccc2c(c1)c(CC(=O)N1CCN(CCC(=O)N[C@H](C(=O)N3C[C@H](O)C[C@H]3C(=O)N[C@@H](C)c3ccc(-c4scnc4C)cc3)C(C)(C)C)CC1)c(C)n2C(=O)c1ccc(Cl)cc1 | 5.5 | – | – | Bld | Bld | -6.1 | –
Cc1ncsc1-c1ccc([C@H](C)NC(=O)[C@@H]2C[C@H](O)CN2C(=O)[C@@H](NC(=O)COCCOCCOCC(=O)N[C@H](C(=O)N2C[C@@H](O)C[C@H]2C(=O)N[C@@H](C)c2ccc(-c3scnc3C)cc2)C(C)(C)C)C(C)(C)C)cc1 | 3.5 | 3.74 | – | – | – | -4.66 | -4.62
CCOC(=O)c1c(C)n(Cc2ccccc2)c2ccc(OCCCCCCCCC(=O)N[C@H](C(=O)N3C[C@H](O)C[C@H]3C(=O)N[C@@H](C)c3ccc(-c4scnc4C)cc3)C(C)(C)C)cc12 | 5.21 | – | Bld | Bld | Bld | – | –
Cc1ncsc1-c1ccc([C@H](CC(=O)N2CCC(N3CCC(C#Cc4ccc(C(=O)N[C@H]5C(C)(C)[C@H](Oc6ccc(C#N)c(Cl)c6)C5(C)C)cc4)CC3)CC2)NC(=O)[C@@H]2C[C@@H](O)CN2C(=O)[C@@H](NC(=O)C2(F)CC2)C(C)(C)C)cc1 | 5.5 | – | Bld | Bld | Bld | – | –
Cc1ccc(-c2csc(N3CCOCC3)n2)c(OCC(=O)NCCCCC(=O)N[C@H](C(=O)N2C[C@H](O)C[C@H]2C(=O)N[C@@H](C)c2ccc(-c3scnc3C)cc2)C(C)(C)C)c1C | 5.02 | – | – | – | Bld | -5.05 | -4.89
COc1ccc2c(c1)c(CC(=O)NCCCCCCC(=O)N[C@H](C(=O)N1C[C@H](O)C[C@H]1C(=O)N[C@@H](C)c1ccc(-c3scnc3C)cc1)C(C)(C)C)c(C)n2C(=O)c1ccc(Cl)cc1 | 5.6 | – | – | Bld | Bld | -7.34 | –
COc1ccc2c(c1)c(CC(=O)N1CCN(CC(=O)N[C@H](C(=O)N3C[C@H](O)C[C@H]3C(=O)N[C@@H](C)c3ccc(-c4scnc4C)cc3)C(C)(C)C)CC1)c(C)n2C(=O)c1ccc(Cl)cc1 | 5.3 | – | – | Bld | Bld | -6.62 | –
CCOC(=O)c1c(C)n(Cc2ccccc2)c2ccc(OCC(=O)NCCCC(=O)N[C@H](C(=O)N3C[C@H](O)C[C@H]3C(=O)N[C@@H](C)c3ccc(-c4scnc4C)cc3)C(C)(C)C)cc12 | 5.1 | – | – | Bld | Bld | -6.23 | –
Cn1c(=O)n(C)c2cc(CNCCCNCC3CCN(c4ccc(C(=O)N[C@H]5CC[C@H](Oc6ccc(C#N)c(Cl)c6)CC5)nn4)CC3)ccc21 | 4.43 | – | – | – | Bld | -4.14 | -4.28
O=C(CCCCCCCCCCC(=O)N1CCN(C(=O)c2cc(Cc3n[nH]c(=O)c4ccccc34)ccc2F)CC1)NCCNc1cccc2c1C(=O)N(C1CCC(=O)NC1=O)C2=O (stereo not given) | 3.64 | 3.48 | – | Bld | – | -6.13 | –
Cc1ncsc1-c1ccc([C@H](C)NC(=O)[C@@H]2C[C@@H](O)CN2C(=O)[C@@H](NC(=O)CCCCn2cc(CN3CCN(C(=O)C[C@@H]4N=C(c5ccc(Cl)cc5)c5c(sc(C)c5C)-n5c(C)nnc54)CC3)nn2)C(C)(C)C)cc1 | 4.12 | 3.81 | – | – | – | -4.68 | -4.54
CN[C@@H](C)C(=O)N[C@H](C(=O)N1CCC[C@H]1C(=O)N[C@H](C(=O)NCCOCCOCCOc1c(-c2csc(N3CCOCC3)n2)ccc(F)c1F)C(c1ccccc1)c1ccccc1)C1CCCCC1 (H-[NMeA][Chg]P[Dip]-X1) | 5.1 | – | – | – | Bld | -4.55 | -4.49
O=C1CCC(N2C(=O)c3cccc(NCCOCCOCC(=O)N4CCN(C(=O)c5cc(Cc6n[nH]c(=O)c7ccccc67)ccc5F)CC4)c3C2=O)C(=O)N1 (stereo not given) | 1.27 | 0.867 | – | – | – | -4.19 | -4.16
COc1ccc2c(c1)c(CC(=O)N1CCN(CCOCCOCC(=O)N[C@H](C(=O)N3C[C@H](O)C[C@H]3C(=O)N[C@@H](C)c3ccc(-c4scnc4C)cc3)C(C)(C)C)CC1)c(C)n2C(=O)c1ccc(Cl)cc1 | 4.33 | 4.1 | – | – | – | -5.22 | -5.11
O=C(COc1c(-c2csc(N3CCOCC3)n2)ccc(F)c1F)NCCCCCCCCCCNc1ccc2nnn(C3CCC(=O)NC3=O)c(=O)c2c1 (stereo not given) | 4.93 | – | Bld | Bld | Bld | – | –
Cc1ncsc1-c1ccc([C@H](C)NC(=O)[C@@H]2C[C@@H](O)CN2C(=O)[C@@H](NC(=O)CN2CCN(C(=O)C[C@@H]3N=C(c4ccc(Cl)cc4)c4c(sc(C)c4C)-n4c(C)nnc43)CC2)C(C)(C)C)cc1 | 4.56 | – | – | – | Bld | -4.9 | -4.79
Cc1ncsc1-c1ccc([C@H](C)NC(=O)[C@@H]2C[C@@H](O)CN2C(=O)[C@@H](NC(=O)COCCOCCOCC(=O)N[C@H](C(=O)N2C[C@H](O)C[C@H]2C(=O)N[C@@H](C)c2ccc(-c3scnc3C)cc2)C(C)(C)C)C(C)(C)C)cc1 | 3.9 | 3.5 | – | – | – | -4.23 | -4.21
Cc1ncsc1-c1ccc([C@H](C)NC(=O)[C@@H]2C[C@@H](O)CN2C(=O)[C@@H](NC(=O)CCCCn2cc(CCCC(=O)N3CCN(C(=O)c4cc(Cc5n[nH]c(=O)c6ccccc56)ccc4F)CC3)nn2)C(C)(C)C)cc1 | 3 | 2.89 | – | – | – | -4.34 | -4.37
Cc1ncsc1-c1ccc([C@H](C)NC(=O)[C@@H]2C[C@@H](O)CN2C(=O)[C@@H](NC(=O)COCCOCCNC(=O)COc2c(-c3csc(N4CCOCC4)n3)ccc(F)c2F)C(C)(C)C)cc1 | 3.94 | 3.5 | – | – | – | -4.52 | -4.47
Cc1ncsc1-c1ccc([C@H](C)NC(=O)[C@@H]2C[C@@H](O)CN2C(=O)[C@@H](NC(=O)CCCCn2cc(COc3c(-c4csc(N5CCOCC5)n4)ccc(F)c3F)nn2)C(C)(C)C)cc1 | 4.99 | – | – | – | Bld | -5.14 | -5
COc1ccc2c(c1)c(CC(=O)NCCN1CCN(CCOCCOCC(=O)N[C@H](C(=O)N3C[C@H](O)C[C@H]3C(=O)N[C@@H](C)c3ccc(-c4scnc4C)cc3)C(C)(C)C)CC1)c(C)n2C(=O)c1ccc(Cl)cc1 | 5.1 | – | – | – | Bld | -4.62 | -4.59
CCOC(=O)c1c(C)n(Cc2ccccc2)c2ccc(OCCCCCCC(=O)N[C@H](C(=O)N3C[C@H](O)C[C@H]3C(=O)N[C@@H](C)c3ccc(-c4scnc4C)cc3)C(C)(C)C)cc12 | 5.15 | – | Bld | Bld | Bld | – | –
Cc1ncsc1-c1ccc([C@H](CC(=O)NCCCCCCCCCCC(=O)N[C@H]2C(C)(C)[C@H](Oc3ccc(C#N)c(Cl)c3)C2(C)C)NC(=O)[C@@H]2C[C@@H](O)CN2C(=O)[C@@H](NC(=O)C2(F)CC2)C(C)(C)C)cc1 | 4.9 | – | Bld | Bld | Bld | – | –
Cc1ncsc1-c1ccc([C@H](C)NC(=O)[C@@H]2C[C@@H](O)CN2C(=O)[C@@H](NC(=O)CCCCCCCCCCC(=O)N2CCN(C(=O)c3cc(Cc4n[nH]c(=O)c5ccccc45)ccc3F)CC2)C(C)(C)C)cc1 | 5 | – | – | Bld | Bld | -7.21 | –
CN[C@@H](C)C(=O)N[C@H](C(=O)N1CCC[C@H]1C(=O)N[C@H](C(=O)NCCCCCCNC(=O)c1cccc2sc(N3CCOCC3)nc12)C(c1ccccc1)c1ccccc1)C1CCCCC1 (H-[NMeA][Chg]P[Dip]-X2) | 5.1 | – | – | – | Bld | -4.72 | -4.66

Reference: ChEMBL document CHEMBL5579898, “Between Theory and Practice: Computational/Experimental Integrated Approaches to Understand the Solubility and Lipophilicity of PROTACs” (J Med Chem, 2024)
